According to ChEMBL document CHEMBL1201862, “PubChem BioAssay data set” (2004):
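How tested: cells in 96-well plates exposed to compound for 48 hours at five concentrations. GI50 = concentration required for 50% inhibition of growth.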 Activity calls are given as the source filed them. Cut-off read from the data, not from the text of the source: active = GI50 up to about 1.1 µM and inactive = higher.

Assays:
Assay in all cases: NCI-60 cell line screen, 48 h
DLD-1 = tested on: DLD-1
DMS-114 = tested on: DMS-114
LXFL 529 = tested on: LXFL 529
M19-MEL = tested on: M19-MEL
DMS-273 = tested on: DMS-273
HOP-18 = tested on: HOP-18
RXF 631 = tested on: RXF 631
SNB-78 = tested on: SNB-78
XF498 = tested on: XF498

COC(=O)C1(C)NCCc2c1[nH]c1ccccc21 (stereo unspecified)
GI50 (DLD-1): > 100 µM (inactive)
GI50 (DMS-114): > 100 µM (inactive)
GI50 (LXFL 529): > 100 µM (inactive)
GI50 (M19-MEL): > 100 µM (inactive)

C=C1CCC(OC(C)=O)C2(C)C(OC(C)=O)CC3OC3(C)C2C(OC(C)=O)C2C(C)C(=O)OC2C1Cl (stereo unspecified)
GI50 (DLD-1): > 100 µM (inactive)
GI50 (DMS-114): > 100 µM (inactive)
GI50 (DMS-273): > 100 µM (inactive)
GI50 (HOP-18): > 100 µM (inactive)
GI50 (LXFL 529): > 100 µM (inactive)
GI50 (M19-MEL): > 100 µM (inactive)
GI50 (RXF 631): > 100 µM (inactive)
GI50 (SNB-78): > 100 µM (inactive)
GI50 (XF498): > 100 µM (inactive)

Cc1nc2ccccn2c1/N=N/c1ccc(C(=O)NN)cc1
GI50 (DLD-1): 52.4 µM (inactive)
GI50 (DMS-114): 17.4 µM (inactive)
GI50 (HOP-18): 70.6 µM (inactive)
GI50 (LXFL 529): 38.5 µM (inactive)
GI50 (M19-MEL): > 100 µM (inactive)
GI50 (RXF 631): 31.7 µM (inactive)
GI50 (SNB-78): > 100 µM (inactive)
GI50 (XF498): 75 µM (inactive)

C[S+]=c1sc2ccccc2s1
GI50 (DLD-1): > 100 µM (inactive)
GI50 (DMS-114): > 100 µM (inactive)
GI50 (DMS-273): > 100 µM (inactive)
GI50 (HOP-18): > 100 µM (inactive)
GI50 (LXFL 529): > 100 µM (inactive)
GI50 (M19-MEL): > 100 µM (inactive)
GI50 (RXF 631): > 100 µM (inactive)

COC(=O)C1CC2CC(=NNC(N)=O)CC2C1 (stereo unspecified)
GI50 (DLD-1): > 100 µM (inactive)
GI50 (DMS-114): > 100 µM (inactive)
GI50 (DMS-273): > 100 µM (inactive)
GI50 (LXFL 529): > 100 µM (inactive)
GI50 (M19-MEL): > 100 µM (inactive)
GI50 (SNB-78): > 100 µM (inactive)
GI50 (XF498): > 100 µM (inactive)

COc1ccc(C(=O)C(C(=O)CC(=O)Nc2cccc(C(F)(F)F)c2)c2ccc(OC)cc2)cc1 (stereo unspecified)
GI50 (DLD-1): > 100 µM (inactive)
GI50 (DMS-114): > 100 µM (inactive)
GI50 (DMS-273): > 100 µM (inactive)
GI50 (LXFL 529): > 100 µM (inactive)
GI50 (M19-MEL): > 100 µM (inactive)
GI50 (RXF 631): > 100 µM (inactive)
GI50 (SNB-78): > 100 µM (inactive)
GI50 (XF498): > 100 µM (inactive)

CCc1ccccc1N1C(=O)C(=O)C(c2nc3ccccc3s2)C(=O)C1=O
GI50 (DLD-1): 43.2 µM (inactive)
GI50 (DMS-114): 79.3 µM (inactive)
GI50 (HOP-18): > 100 µM (inactive)
GI50 (LXFL 529): 75.7 µM (inactive)
GI50 (M19-MEL): > 100 µM (inactive)
GI50 (RXF 631): 44.3 µM (inactive)
GI50 (SNB-78): > 100 µM (inactive)
GI50 (XF498): > 100 µM (inactive)

COC(=O)CCC(NC(=S)N/N=C(\C)c1cnccn1)C(=O)OC (stereo unspecified)
GI50 (DLD-1): 48 µM (inactive)
GI50 (DMS-114): 22.1 µM (inactive)
GI50 (HOP-18): 56.1 µM (inactive)
GI50 (LXFL 529): 57.7 µM (inactive)
GI50 (M19-MEL): 39.5 µM (inactive)
GI50 (RXF 631): 73.5 µM (inactive)
GI50 (SNB-78): > 100 µM (inactive)
GI50 (XF498): > 100 µM (inactive)

CC1=C(C(=O)Nc2ccccc2C)C(c2ccc(C3C(C(=O)Nc4ccccc4C)=C(C)NC(C)=C3C(=O)Nc3ccccc3C)cc2)C(C(=O)Nc2ccccc2C)=C(C)N1
GI50 (DLD-1): 2.27 µM (inactive)
GI50 (DMS-114): 3.75 µM (inactive)
GI50 (DMS-273): 3.16 µM (inactive)
GI50 (LXFL 529): 2.84 µM (inactive)
GI50 (M19-MEL): 3.83 µM (inactive)
GI50 (RXF 631): 12.8 µM (inactive)
GI50 (SNB-78): 4.16 µM (inactive)
GI50 (XF498): 15.8 µM (inactive)

N#CC(C#N)=c1ccc(=C2N3CCCC3CN2C23CC4CC(CC(C4)C2)C3)cc1 (stereo unspecified)
GI50 (DLD-1): > 100 µM (inactive)
GI50 (DMS-114): > 100 µM (inactive)
GI50 (DMS-273): > 100 µM (inactive)
GI50 (HOP-18): > 100 µM (inactive)
GI50 (LXFL 529): > 100 µM (inactive)
GI50 (M19-MEL): > 100 µM (inactive)
GI50 (SNB-78): > 100 µM (inactive)

Cc1ccc(S(=O)(=O)N/N=C2\C(=O)C3CC2C(Cl)C3Cl)cc1 (stereo unspecified)
GI50 (DLD-1): > 100 µM (inactive)
GI50 (DMS-114): > 100 µM (inactive)
GI50 (DMS-273): > 100 µM (inactive)
GI50 (HOP-18): > 100 µM (inactive)
GI50 (LXFL 529): > 100 µM (inactive)
GI50 (RXF 631): > 100 µM (inactive)

C[n+]1c2ccccc2c(CNC(CS)C(=O)O)c2ccccc21 (stereo unspecified)
GI50 (DLD-1): 24.6 µM (inactive)
GI50 (DMS-273): 18.5 µM (inactive)
GI50 (HOP-18): 49.1 µM (inactive)
GI50 (LXFL 529): 32.4 µM (inactive)
GI50 (M19-MEL): 27.7 µM (inactive)
GI50 (RXF 631): 24.9 µM (inactive)
GI50 (SNB-78): 34.3 µM (inactive)
GI50 (XF498): 24.3 µM (inactive)

Nc1cccc(C(=O)/C=C/c2ccccc2O)c1
GI50 (DLD-1): > 100 µM (inactive)
GI50 (DMS-114): 46.7 µM (inactive)
GI50 (DMS-273): > 100 µM (inactive)
GI50 (HOP-18): 84.3 µM (inactive)
GI50 (LXFL 529): 71.4 µM (inactive)
GI50 (M19-MEL): > 100 µM (inactive)
GI50 (SNB-78): > 100 µM (inactive)
GI50 (XF498): > 100 µM (inactive)

[C-]#[N+][C@@H]1C2[C@H](CC[C@@]1(C)O)C(=C)CC[C@@H]2[C@@]1(C)CC[C@H](Cl)C(C)(C)O1 (stereo partly specified)
GI50 (DLD-1): 2.88 µM (inactive)
GI50 (DMS-114): 1.5 µM (inactive)
GI50 (HOP-18): 2.71 µM (inactive)
GI50 (LXFL 529): 3.57 µM (inactive)
GI50 (M19-MEL): 4.12 µM (inactive)
GI50 (RXF 631): 6.62 µM (inactive)
GI50 (XF498): 4.71 µM (inactive)

CCC12C=C(C(=O)OC)N3c4ccccc4C4CCN(CCC1)C2C43 (stereo unspecified)
GI50 (DLD-1): 66.7 µM (inactive)
GI50 (DMS-114): 63 µM (inactive)
GI50 (DMS-273): 59.6 µM (inactive)
GI50 (HOP-18): > 100 µM (inactive)
GI50 (LXFL 529): 87.1 µM (inactive)
GI50 (M19-MEL): 75.9 µM (inactive)
GI50 (SNB-78): > 100 µM (inactive)

C#CC1(O)CCC2C3CCc4cc(Oc5nc(F)nc(-c6c7ccccc7c7n6CCS7)n5)ccc4C3CC[C@@]21C (stereo partly specified)
GI50 (DLD-1): 39.8 µM (inactive)
GI50 (DMS-114): 11.2 µM (inactive)
GI50 (DMS-273): 27.2 µM (inactive)
GI50 (LXFL 529): 25.1 µM (inactive)
GI50 (M19-MEL): 33.9 µM (inactive)
GI50 (XF498): 37.7 µM (inactive)

NC(=O)C(=O)Cc1nc2ccccc2s1
GI50 (DMS-114): > 100 µM (inactive)
GI50 (HOP-18): > 100 µM (inactive)
GI50 (LXFL 529): > 100 µM (inactive)
GI50 (M19-MEL): > 100 µM (inactive)
GI50 (SNB-78): > 100 µM (inactive)
GI50 (XF498): > 100 µM (inactive)

CC1=N/C(=C\c2cccc3ccccc23)C(=O)O1
GI50 (DLD-1): > 100 µM (inactive)
GI50 (DMS-114): > 100 µM (inactive)
GI50 (HOP-18): 10.6 µM (inactive)
GI50 (LXFL 529): > 100 µM (inactive)
GI50 (M19-MEL): > 100 µM (inactive)
GI50 (RXF 631): > 100 µM (inactive)
GI50 (SNB-78): > 100 µM (inactive)

CC1CC(=O)Nc2ccccc2N1C(=O)CN1CCC(CCCCN(C)C)CC1 (stereo unspecified)
GI50 (DLD-1): > 100 µM (inactive)
GI50 (DMS-114): > 100 µM (inactive)
GI50 (DMS-273): > 100 µM (inactive)
GI50 (HOP-18): > 100 µM (inactive)
GI50 (LXFL 529): > 100 µM (inactive)
GI50 (M19-MEL): > 100 µM (inactive)
GI50 (RXF 631): > 100 µM (inactive)
GI50 (SNB-78): > 100 µM (inactive)

O=C(CC1Sc2ccccc2NC1=O)Nc1ccc([N+](=O)[O-])cc1[N+](=O)[O-] (stereo unspecified)
GI50 (DLD-1): 15.3 µM (inactive)
GI50 (DMS-114): 14.2 µM (inactive)
GI50 (HOP-18): 3.39 µM (inactive)
GI50 (LXFL 529): 15.3 µM (inactive)
GI50 (M19-MEL): 16.1 µM (inactive)
GI50 (RXF 631): 17.1 µM (inactive)
GI50 (SNB-78): 21.2 µM (inactive)

COc1ccc2nc3cc(Cl)ccc3c(NC(C)CCCN(CCCl)CCCl)c2c1 (stereo unspecified)
GI50 (DLD-1): 0.524 µM (active)
GI50 (DMS-114): 0.733 µM (active)
GI50 (DMS-273): 0.109 µM (active)
GI50 (LXFL 529): 0.439 µM (active)
GI50 (M19-MEL): 0.598 µM (active)
GI50 (SNB-78): 0.622 µM (active)
GI50 (XF498): 0.333 µM (active)
